Values quoted from earlier work, collected in patent publication US20100256576A1, “Disinfectant Compositions, Methods and Systems” (TYCO HEALTHCARE GROUP LP, priority 2009, published 2010).

Conditions: up to 3000 mg infused over 3 hours, daily, humans with hypercalcemia

O=C([O-])CN(CCN(CC(=O)[O-])CC(=O)O)CC(=O)O.[Na+].[Na+] [EDTA, Disodium EDTA]
tolerability of infused dose: well tolerated
